According to the supplement of paper PMC10702517:
± gives the standard deviation.

Legend:
[1] = chemical recovery from spiked human plasma; higher = better extraction; settings: pooled human plasma
[2] = chemical recovery into PDMS from spiked human plasma; higher = better extraction; settings: pooled human plasma, extraction method: PES with PDMS
[3] = chemical recovery by SPE of plasma after PDMS sampling; higher = better extraction; settings: pooled human plasma, extraction method: HLB SPE of plasma after PES
[4] = extraction method: SPE only (HLB 96-well), PES comparison experiment
[5] = extraction method: solvent precipitation (ACN + hexane)
[6] = extraction method: SPE only (HLB 96-well)
[7] = extraction method: PES+SPE (3 d PDMS equilibration then HLB SPE)
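Wherever chemical recovery by SPE of plasma after PDMS sampling is given: over 400 spiked chemicals quantified by LC-HRMS or GC-HRMS via internal standard calibration, recovery relative to spike mix added to unspiked plasma extract to correct matrix effects.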

Compound	chemical recovery [1, 4] [%]	chemical recovery into PDMS ([2]; equilibration time (d): 1) [%]	chemical recovery into PDMS ([2]; equilibration time (d): 3) [%]	chemical recovery into PDMS ([2]; equilibration time (d): 6) [%]	chemical recovery by SPE of plasma ([3]; equilibration time (d): 1) [%]	chemical recovery by SPE of plasma ([3]; equilibration time (d): 3) [%]	chemical recovery by SPE of plasma ([3]; equilibration time (d): 6) [%]	chemical recovery [1, 5] [%]	chemical recovery [1, 6] [%]	chemical recovery [1, 7] [%]
CC(=O)[C@@]1(O)CC[C@H]2[C@@H]3C[C@H](C)C4=CC(=O)C=C[C@]4(C)[C@@]3(F)[C@@H](O)C[C@@]21C [Fluorometholone]	50.4 ± 7.2	1.66 ± 0.4	3.75 ± 0.69	4.15 ± 0.95	45.1 ± 3.6	48.3 ± 3.2	40.3 ± 1.6			
CC(Cc1ccc(C(C)(C)C)cc1)CN1C[C@@H](C)O[C@@H](C)C1 (some centres not stated) [Fenpropimorph]	43.4 ± 8	0.0443 ± 0.064	0.0146 ± 0.013	0.0427 ± 0.056	0.124 ± 0.08	0.066 ± 0.064	0.0142 ± 0.017	80.2 ± 11		
OC(c1ccc(Cl)cc1)(c1ccc(Cl)cc1)C(Cl)(Cl)Cl [Dicofol]	14.4 ± 2.8		56.9 ± 18		11.5 ± 8.1	15 ± 1.5	15.2 ± 3.4	23.1 ± 0.7	0.108 ± 0.017	
O=c1[nH]c2ccccc2s1 [2-Hydroxybenzothiazole]	58.8 ± 4.3	9.18 ± 0.11	11.1 ± 0.48	8.95 ± 1.5	36.2 ± 6	37.7 ± 2.4	30.3 ± 2.5	71.6 ± 5.8	49.6 ± 2.7	63.5 ± 7
CCCC1COC(Cn2cncn2)(c2ccc(Cl)cc2Cl)O1 (configuration not stated) [Propiconazole]	43.1 ± 6.8	38.2 ± 2.5	41 ± 3.7	40.7 ± 1.6	0.277 ± 0.24	0.384 ± 0.17	0.117 ± 0.052	70.3 ± 3.4		
C#C[C@]1(O)C=C[C@H]2[C@@H]3CCC4=CC(=O)CC[C@@H]4[C@H]3CC[C@@]21CC [Gestoden]	47 ± 7.4	34.1 ± 1.7	43 ± 2.3	40.9 ± 4.1	22.4 ± 3	17.6 ± 1	11.7 ± 1.3			
CC(=O)CCCCn1c(=O)c2c(ncn2C)n(C)c1=O [Pentoxifylline]	52.1 ± 4.9	17.2 ± 0.99	24.5 ± 3.9	27 ± 2.1	37.9 ± 5.9	33.6 ± 3.5	25.1 ± 4.3	76.5 ± 3.2	46.9 ± 3.7	57.2 ± 6.1
CCCCCCCCCCCCCCN(C)C [N,N-Dimethyltetradecylamine]	39.3 ± 8.7		0.0161 ± 0.022		0.241 ± 0.23	0.0666 ± 0.015	0.0207 ± 0.085			
CN(C)CCC=C1c2ccccc2CCc2ccccc21 [Amitriptyline]	44.1 ± 5.6	0.00525 ± 0.0045	0.0228 ± 0.034		0.152 ± 0.26	0.14 ± 0.12	0.0767 ± 0.067	77.5 ± 5.1	39.4 ± 10	0.236 ± 0.082
C[C@]12C=CC(=O)C=C1CC[C@@H]1[C@@H]2C(=O)C[C@@]2(C)[C@H]1CC[C@]2(O)C(=O)CO [Prednisone]	45.5 ± 5.8		0.176 ± 0.18	0.265 ± 0.091	41.6 ± 4.3	43.7 ± 5.1	41.1 ± 2.4			
CO/C=C(/C(=O)O)c1ccccc1Oc1cc(Oc2ccccc2C#N)ncn1 [Azoxystrobin acid]	51.7 ± 3.9		0.00158 ± 0.0027		46.8 ± 4.8	50.4 ± 2	45.9 ± 2.3	76.6 ± 5.2		
CC(C)(C)NC(=O)[C@H]1CC[C@H]2[C@@H]3CC[C@H]4NC(=O)C=C[C@]4(C)[C@H]3CC[C@]12C [Finasteride]	47.9 ± 6.3	32.6 ± 3	37.9 ± 1.4	38.5 ± 0.91	9.28 ± 1.5	5.81 ± 1.2	3.05 ± 0.42			
Clc1cccc(Cl)c1NC1=NCCN1 [Clonidine]	39.6 ± 6.6	7.21 ± 0.54	8.62 ± 0.81	6.38 ± 5.7	13.4 ± 3.1	12.7 ± 1.8	12.3 ± 3.9	60.3 ± 8.8	41.2 ± 3.6	28.5 ± 5.5
Cc1nc(N(C)C)nc(OC(=O)N(C)C)c1C [Pirimicarb]	41.4 ± 5.3	29.3 ± 1.2	33.3 ± 1.8	34 ± 1.7	6.05 ± 0.55	6.09 ± 1	4.09 ± 0.28	64.5 ± 2.5	34.3 ± 1.5	55.6 ± 8
O=C(NC(=O)c1c(F)cccc1F)Nc1ccc(Cl)cc1 [Diflubenzuron]		36.3 ± 2.5	38.3 ± 2.3	40.4 ± 5	8.71 ± 3.2	8.73 ± 0.29	4.73 ± 0.29	48.6 ± 2.1	29.8 ± 6.3	
Cc1cc(C2CC2)nc(Nc2ccccc2)n1 [Cyprodinil]	38.5 ± 5.9	33.5 ± 1.8	36.1 ± 3.9	36.2 ± 1.2	0.89 ± 0.78	0.733 ± 0.65	0.362 ± 0.33	69.9 ± 3.2		
O=S(=O)(O)c1ccc2[nH]c(-c3ccccc3)nc2c1 [Phenylbenzimidazole sulfonic acid]	52 ± 5.8	0.124 ± 0.24			42.2 ± 5.2	49 ± 1.8	45.8 ± 8.4	27.9 ± 3.1	36.9 ± 3.3	43.2 ± 2.9
O=C1Nc2ccc(Cl)cc2C(C#CC2CC2)(C(F)(F)F)O1 (configuration not stated) [Efavirenz]	38.7 ± 7.3	44.7 ± 4.4	46.6 ± 4.5	47.4 ± 0.83	4.94 ± 4.3	6.96 ± 1.3	1.44 ± 2.5	41.4 ± 3.2	27.1 ± 5.3	
COCC(C)N(C(=O)CCl)c1c(C)csc1C (configuration not stated) [Dimethenamid]	46.6 ± 8.4	41.5 ± 0.65	46.1 ± 4.6	44.9 ± 2.2	1.45 ± 0.053	2.08 ± 0.36	1.25 ± 0.1	55.4 ± 3.7	53.9 ± 1.1	59.7 ± 19
CC1(C)O[C@@H]2C[C@H]3[C@@H]4C[C@H](F)C5=CC(=O)C=C[C@]5(C)[C@H]4[C@@H](O)C[C@]3(C)[C@]2(C(=O)CO)O1 [Flunisolide]	46.9 ± 5.2	5.95 ± 0.6	10.2 ± 1.6	11.7 ± 2	39.7 ± 3.9	37.1 ± 2.1	27.6 ± 2.4			
Nc1ccc(/N=N/c2ccccc2)cc1 [Aniline Yellow]	28.9 ± 4.3	12.3 ± 4.1	10.4 ± 4.8	11.3 ± 3	6.65 ± 1.6	7.55 ± 0.93	5.19 ± 0.91			
CCCCc1oc2ccccc2c1C(=O)c1cc(I)c(OCCN(CC)CC)c(I)c1 [Amiodarone]		0.0444 ± 0.019	0.131 ± 0.037	0.0473 ± 0.062	0.357 ± 0.17	0.127 ± 0.05		106 ± 22	37.9 ± 13	
CN[C@H]1CC[C@@H](c2ccc(Cl)c(Cl)c2)c2ccccc21 [Sertraline]	40.5 ± 8.4	0.493 ± 0.065	0.434 ± 0.081	0.535 ± 0.27	0.296 ± 0.11	0.321 ± 0.11	0.0944 ± 0.088	72.8 ± 3.8	71.9 ± 9.3	1.09 ± 0.4
Nc1ccc(Cl)cc1 [4-Chloroaniline]		6.69 ± 4.3	5.92 ± 5.1	5.47 ± 3.5	11.4 ± 2.3	14.6 ± 1.5	9.71 ± 1.7		16.4 ± 6.2	
CC(CCl)OP(=O)(OC(C)CCl)OC(C)CCl (configuration not stated) [Tris(1-chloro-2-propyl)phosphate]	55 ± 8.9	34.1 ± 1.8	44.3 ± 3.9	43.7 ± 3.3		1.7 ± 2	3.1 ± 2.4			
